The test system of assay [1] is FLAG-tagged BRD4 in HeLa cells. The assay can be described thus: In situ cell extraction with IF, BRD4 displacement from chromatin. The format is cell-based. The note with it: for IF signal for histone H3: HeLa FLAG-BRD4, two-color staining.
For assay [2], the system named is histone H3K23Ac mark in HeLa cells. The assay can be described thus: H3K23 acetylation in HeLa cells (Western blot, anti-H3K23Ac immunostaining). The format is cell-based. The note with it: HDAC inhibitor treatment, 2 µM, 2 h; Western blot. On the procedure:
Standard IF procedures were used. Briefly, cells were permeabilized (0.5 % Triton X-100 in PBS) for 15 min and incubated with blocking solution (DAKO #X0909) for 30 min. The following primary antibodies were used: goat anti-V5 (Bethyl #A190-119A) 1:200; mouse anti-FLAG (Sigma #F1804) 1:200; rabbit anti-BRD4 (Abcam #ab128874) 1:200; rabbit anti-TRIM24 (Proteintech #14208-1-AP) 1:400; rabbit anti-K3K23Ac (Cell Signaling #8848) 1:200, and mouse anti-histone H3 (Active Motif #39763) 1:4000. Alexa Fluor-conjugated secondary antibodies were from Invitrogen and Hoechst 33342 (Invitrogen, #H3570) was used for nuclei counterstaining (10 µg/ml). For each Alexa fluorochrome, images (4–10 fields per well; 20X magnifications) were acquired using the Operetta High-Content Screening System (PerkinElmer). Image analysis was performed in Harmony software (PerkinElmer) by selecting nuclei and cytoplasm in Hoechst channel. Gating for single cells of flat morphology was done based on nuclei area, roundness and intensity of Hoechst in the nucleus and in the cytoplasm. In every gated cell, the mean signal intensity value for each fluorochrome was calculated separately in nucleus and cytoplasm. The specific nuclear signal was estimated subtracting mean cytoplasmic value from nuclear; and average value was calculated using at least 1000 cells in each well.

The target in assay [3] is T1, FLAG-tagged BRD4 in HeLa cells (Homo sapiens, UniProt O60885).
T1 construct: expressed in transfected cells; host or cells: HeLa
The assay can be described thus: In situ cell extraction with IF, BRD4 displacement from chromatin. The format is cell-based. The note with it: HeLa FLAG-BRD4, 96-well, IF.

Assay [4] deals with FLAG-TRIM24-PHD-Bromo-V5 (isolated PHD-bromodomain, residues 810-1050) (human) (UniProt O15164). The assay can be described thus: AlphaScreen or HTRF; AlphaLISA on lysates of HeLa TRIM24-PB cells pretreated with SAHA or DMSO; anti-FLAG or anti-V5 acceptor beads, biotinylated anti-histone H3 antibody, streptavidin donor beads; histone extraction buffer diluted in water.
For assay [5] the target is unchanged. The assay can be described thus: proximity ligation; HeLa TRIM24-PB cells, fixed; goat anti-V5 and mouse anti-histone H3 antibody pair; with and without SAHA (5 µM, 2 h).
For a further assay, the system named is SMARCA2. Details: method as in PMID 26139243. The note with it: cited from earlier work.
In assay [6] the target is biotinylated H3K23Ac peptide (N-terminal residues 1-33 of histone H3). The assay can be described thus: AlphaScreen or HTRF; AlphaScreen; biotinylated H3K23Ac peptide in excess (1 µM), indicated amounts of His-TRIM24 WT or N980A; streptavidin donor beads and Ni-NTA acceptor beads. Background: In Alpha technology, singlet oxygen from a donor bead excites a nearby acceptor bead.
Sequence of biotinylated H3K23Ac peptide (N-terminal residues 1-33 of histone H3) (peptide, as listed by the source): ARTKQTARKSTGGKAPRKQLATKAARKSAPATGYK

The target is the same in assay [7]. The assay can be described thus: AlphaScreen or HTRF; AlphaScreen optimisation matrix of TRIM24 protein and peptide (twofold dilution series); final conditions 5 nM TRIM24 and 15 nM peptide; Buffer B (50 mM Hepes pH 7.4, 100 mM NaCl, 0.1 % BSA, 0.05 % Chaps), room temperature.

I-BET 151: the “IF signal for histone H3” value in assay [1] is listed as “unaffected”.
Take `CC(/C=C/C(=O)NO)=C\[C@@H](C)C(=O)c1ccc(N(C)C)cc1` [TSA, Trichostatin A]: the “Cellular histone H3K23Ac mark” value in assay [2] is on record as “hyperacetylated”.
Turning to `COc1cc(OC)c2c(=O)[nH]c(-c3cc(C)c(OCCO)c(C)c3)nc2c1` [RVX-208], the “Displacement of BRD4 from chromatin” value in assay [3] was “partial displacement”.
As to “endogenous histone H3 (from UniProt P68431 1-136) (natural protein)”, in assay [4], the AlphaLISA S/B (FLAG-acceptor beads, histone extraction buffer diluted 1:10) turned out to be 50 fold; the AlphaLISA S/B (FLAG-acceptor beads, histone extraction buffer replaced by water) turned out to be 20; the AlphaLISA S/B (V5-acceptor beads) was 14 fold; the AlphaLISA S/B (final 384-well protocol, 26 plates) amounted to 30. Moreover, in assay [5], the fold increase of the PLA signal with SAHA against no SAHA was > 3 fold.
For `Cc1sc2c(c1C)C(c1ccc(Cl)cc1)=N[C@@H](CC(=O)OC(C)(C)C)c1nnc(C)n1-2` [JQ1], in assay [1], the “IF signal for histone H3” value is “unaffected”. In assay [1] (JQ1 1 µM, HeLa expressing FLAG-tagged bromodomain of BRD4), the “Time to decrease in BRD4 bromodomain binding to chromatin” value is listed as ≤ 5 min.
As to `O=C(/C=C/N1C[C@H]2C[C@@H]1CN2c1ccccn1)c1ccccc1O` [PFI-3], the “Displacement of endogenous full-length SMARCA2 protein from chromatin” value in the assay on SMARCA2 is “fails to displace”. The “Displacement of isolated GFP-tagged SMARCA2 bromodomain from chromatin” value with SMARCA2 (engineered cells) is “can displace”.
For “His-tagged TRIM24 PHD-bromodomain, wild type (domain or fragment)”, in assay [6], the AlphaScreen signal to background (S/B) is > 250. Moreover, in assay [7], the AlphaScreen S/B at 5 nM TRIM24 and 15 nM peptide stood at 432.
